Measured values published in PMC4503722, “Novel Phenotypic Outcomes Identified for a Public Collection of Approved Drugs from a Publicly Accessible Panel of Assays” (PLoS ONE, 2015).

Experiments:
HT-29 = assay: cells; format: cell-based; settings: assay number 28; for IC50: read-out: Basal_Viability ATP HT-29 summarized IC50
[1] = tested on: HCT116 cells treated with a GSK3β inhibitor; assay: cells; format: cell-based; settings: assay number 26, GSK3b inhibitor pretreated; for IC50: read-out: GSK3b inh pretreated_Viability ATP HCT116 summarized IC50
[2] = tested on: ECFC/ADSC co-culture cell nuclei number; settings: for IC50: read-out: VEGF_ADSC\ECFC Angio Hoechst NucArea summarized IC50
SW480 = assay: cells; format: cell-based; settings: assay number 24; for IC50: read-out: Basal_Viability ATP SW480 summarized IC50
SNU-C1 = assay: cells; format: cell-based; settings: assay number 30; for IC50: read-out: Basal_Viability ATP SNU-C1 summarized IC50
RKO = assay: cells; format: cell-based; settings: assay number 29; for IC50: read-out: Basal_Viability ATP RKO summarized IC50
DLD-1 = assay: cells; format: cell-based; settings: assay number 23; for IC50: read-out: Basal_Viability ATP DLD-1 summarized IC50
HCT116 = assay: cells; format: cell-based; settings: assay number 25, basal; for IC50: read-out: Basal_Viability ATP HCT116 summarized IC50
Colo320 = assay: cells; format: cell-based; settings: assay number 27; for IC50: read-out: Basal_Viability ATP Colo 320 summarized IC50
[3] = tested on: endothelial tube formation in co-cultures of ECFCs and ADSCs treated with VEGF; assay: cells; format: cell-based, human; settings: for IC50: read-out: VEGF_ADSC\ECFC Angio CD31 TubeArea summarized IC50

Row | SMILES | VEGF_ADSC\ECFC Angio Hoechst NucArea IC50/EC50 [2] | VEGF_ADSC\ECFC Angio CD31 TubeArea IC50/EC50 [3] | IC50 (HT-29; basal) | IC50 [1] | IC50 [2] | IC50 (SW480; basal) | IC50 (SNU-C1; basal) | IC50 (RKO; basal) | IC50 (DLD-1; basal) | IC50 (HCT116) | IC50 (Colo320; basal) | IC50 [3] | Basal_Viability ATP HT-29 IC50/EC50 (HT-29; concentration response) | GSK3b inh pretreated_Viability ATP HCT116 IC50/EC50 ([1]; concentration response) | Basal_Viability ATP SW480 IC50/EC50 (SW480; concentration response) | Basal_Viability ATP SNU-C1 IC50/EC50 (SNU-C1; concentration response) | Basal_Viability ATP RKO IC50/EC50 (RKO; concentration response) | Basal_Viability ATP DLD-1 IC50/EC50 (DLD-1; concentration response) | Basal_Viability ATP HCT116 IC50/EC50 (HCT116; concentration response) | Basal_Viability ATP Colo 320 IC50/EC50 (Colo320; concentration response) | other results
1 | CCN(CC)C(=O)c1cccnc1 [NCGC00166026-02] | > 10 µM | > 10 µM |  |  |  |  |  |  |  |  |  |  |  |  |  |  |  |  |  |  | Basal_Viability ATP HT-29 IC50/EC50 (HT-29; basal): > 20 µM; GSK3b inh pretreated_Viability ATP HCT116 IC50/EC50 [1]: > 20 µM; Basal_Viability ATP SW480 IC50/EC50 (SW480; basal): > 20 µM; Basal_Viability ATP SNU-C1 IC50/EC50 (SNU-C1; basal): > 20 µM; Basal_Viability ATP RKO IC50/EC50 (RKO; basal): > 20 µM; Basal_Viability ATP DLD-1 IC50/EC50 (DLD-1; basal): > 20 µM; Basal_Viability ATP HCT116 IC50/EC50 (HCT116): > 20 µM; Basal_Viability ATP Colo 320 IC50/EC50 (Colo320; basal): > 20 µM
2 | COP(=S)(OC)Oc1ccc(Sc2ccc(OP(=S)(OC)OC)cc2)cc1 [NCGC00163910-05] |  |  | > 20 µM | > 20 µM | > 10 µM | 0.0118 µM | 3.03 µM | 12.1 µM | > 20 µM | > 20 µM | > 20 µM | > 10 µM |  |  |  |  |  |  |  |  | 
3 | O=C(Nc1ccc(Cl)cc1)Nc1ccc(Cl)c(Cl)c1 [NCGC00164034-05] |  |  | 0.383 µM | 0.362 µM | > 10 µM | 0.897 µM | 0.335 µM | 0.288 µM | 0.323 µM | 0.228 µM | 0.362 µM | > 10 µM |  |  |  |  |  |  |  |  | 
4 | CCC(C(=O)OCCOCCN(CC)CC)c1ccccc1.O=C(O)CC(O)(CC(=O)O)C(=O)O (centres unmarked) [NCGC00160645-02] | > 10 µM | > 10 µM |  |  |  |  |  |  |  |  |  |  |  |  |  |  |  |  |  |  | Basal_Viability ATP HT-29 IC50/EC50 (HT-29; basal): > 20 µM; GSK3b inh pretreated_Viability ATP HCT116 IC50/EC50 [1]: > 20 µM; Basal_Viability ATP SW480 IC50/EC50 (SW480; basal): > 20 µM; Basal_Viability ATP SNU-C1 IC50/EC50 (SNU-C1; basal): > 20 µM; Basal_Viability ATP RKO IC50/EC50 (RKO; basal): > 20 µM; Basal_Viability ATP DLD-1 IC50/EC50 (DLD-1; basal): > 20 µM; Basal_Viability ATP HCT116 IC50/EC50 (HCT116): > 20 µM; Basal_Viability ATP Colo 320 IC50/EC50 (Colo320; basal): > 20 µM
5 | CC(=O)NC(=O)c1ccccc1O [NCGC00160362-02] |  |  | > 20 µM | > 20 µM | > 10 µM | > 20 µM | > 20 µM | > 20 µM | > 20 µM | > 20 µM | > 20 µM | > 10 µM |  |  |  |  |  |  |  |  | 
6 | CCOC(=O)/C=C(C)/C=C/C[C@@H](C)CCCC(C)C [NCGC00248275-02] | > 10 µM | > 10 µM |  |  |  |  |  |  |  |  |  |  | > 20 µM | > 20 µM | > 20 µM | > 20 µM | > 20 µM | > 20 µM | > 20 µM | > 20 µM | 
7 | CC(C)[C@@H]1CC[C@@H](C)C[C@H]1OC(=O)c1ccccc1O [NCGC00181042-02] | > 10 µM | > 10 µM |  |  |  |  |  |  |  |  |  |  | > 20 µM | > 20 µM | > 20 µM | > 20 µM | > 20 µM | > 20 µM | > 20 µM | > 20 µM | 
8 | CC1(C)[C@H](C=C(Cl)Cl)[C@@H]1C(=O)OCc1c(F)c(F)cc(F)c1F [NCGC00344542-01] | > 10 µM | > 10 µM |  |  |  |  |  |  |  |  |  |  | > 20 µM | > 20 µM | > 20 µM | > 20 µM | > 20 µM | > 20 µM | > 20 µM | > 20 µM | 
